Patent publication US20250025443A1, “COMPOUNDS AND METHODS FOR TREATING CORONA VIRUSES” (CLEAR CREEK BIO, INC., priority 2021, published 2025)

biological target: SARS-CoV-2 Papain-Like Protease (PLpro) (Severe acute respiratory syndrome coronavirus 2 (2019-nCoV) (SARS-CoV-2), UniProt P0DTD1); test: biochemical; conditions: PLpro enzymatic fluorescence assay; class symbols; read-out: PLpro IC50

Structure (SMILES)	IC50
COCCC(NCc1cc([N+](=O)[O-])ccc1C)c1cccc2ccccc12 (stereo not shown) [Compound 113]	> 5000 nM
Cc1ccc(OCC2CCN2C)cc1C(=O)NC1(c2cc(OC(C)C)cc3ccccc23)CC1 (stereo not shown) [Compound 476, N-(1-(3-Isopropoxynaphthalen-1-yl)cyclopropyl)-2-methyl-5-((1-methylazetidin-2-yl)methoxy)benzamide]	< 100 nM
C=C(C)c1cc(C2(NC(=O)c3cc(OC[C@@H]4CCCN4C)ccc3C)CC2)c2cccnc2c1 [Compound 719, (S)-2-Methyl-5-((1-methylpyrrolidin-2-yl)methoxy)-N-(1-(7-(prop-1-en-2-yl)quinolin-5-yl)cyclopropyl)benzamide]	< 100 nM
Cc1ccc(OC[C@@H]2CCN2C)cc1C(=O)NC1(c2cc(OCC(F)(F)F)cc3ncccc23)CC1 [Compound 795, (S)-2-Methyl-5-((1-methylazetidin-2-yl)methoxy)-N-(1-(7-(2,2,2-trifluoroethoxy)quinolin-5-yl)cyclopropyl)benzamide]	< 100 nM
CC(=O)c1ccc(-c2cc(C3(NC(=O)c4cc(OC[C@@H]5CCN5C)ccc4C)CC3)c3cccnc3c2)s1 [Compound 657, (S)-N-(1-(7-(5-Acetylthiophen-2-yl)quinolin-5-yl)cyclopropyl)-2-methyl-5-((1-methylazetidin-2-yl)methoxy)benzamide]	< 100 nM

same assay, conditions: SARS-CoV-2 PLpro enzymatic fluorescence assay; read-out: PLpro IC50

Structure (SMILES)	IC50
Cc1ccc(OCC(C)N)cc1C(=O)NC1(c2cc(-c3ccccc3)cc3ccccc23)CC1 (stereo not shown) [Compound 470, 5-(2-Aminopropoxy)-2-methyl-N-(1-(3-phenylnaphthalen-1-yl)cyclopropyl)benzamide]	< 100 nM
Cc1cc(C2(NC(=O)c3cc(OCC4CCN4C)ccc3C)CC2)c2ccccc2c1 (stereo not shown) [Compound 501, 2-Methyl-5-((1-methylazetidin-2-yl)methoxy)-N-(1-(3-methylnaphthalen-1-yl)cyclopropyl)benzamide]	< 100 nM
Cc1cc2nc[nH]c2cc1C(=O)N[C@H](C)c1cccc2ccccc12 [Compound 102, (R)-5-Methyl-N-(1-(naphthalen-1-yl)ethyl)-1H-benzo[d]imidazole-6-carboxamide]	1000 to 5000 nM
Cc1ccc(OC[C@@H]2CCCN2C)cc1C(=O)NC1(c2cccc3ncccc23)CC1 [Compound 379, (S)-2-Methyl-5-((1-methylpyrrolidin-2-yl)methoxy)-N-(1-(quinolin-5-yl)cyclopropyl)benzamide]	< 100 nM
CNCCOc1ccc(C)c(C(=O)NC2(c3cccc4cnccc34)CC2)c1 [Compound 375, N-(1-(Isoquinolin-5-yl)cyclopropyl)-2-methyl-5-(2-(methylamino)ethoxy)benzamide]	< 100 nM
Cc1ncc(OCCN(C)C)cc1C(=O)NC1(c2cccc3ccccc23)CC1 [Compound 275, 5-(2-(Dimethylamino)ethoxy)-2-methyl-N-(1-(naphthalen-1-yl)cyclopropyl)nicotinamide]	1000 to 5000 nM
Cc1ccc(OC2CC(N)C2)cc1C(=O)NC1(c2cccc3ccccc23)CC1 (stereo not shown) [Compound 265, 5-(3-Aminocyclobutoxy)-2-methyl-N-(1-(naphthalen-1-yl)cyclopropyl)benzamide]	100 to 1000 nM
Cc1ccc(NC2CNC2)cc1C(=O)NC1(c2cccc(-c3ccccc3)c2)CC1 [Compound 187, N-(1-([1,1′-Biphenyl]-3-yl)cyclopropyl)-5-(azetidin-3-ylamino)-2-methylbenzamide]	1000 to 5000 nM
CCNCCOc1ccc(C)c(C(=O)NC2(c3cccc4ccccc34)CC2)c1 [Compound 351, 5-(2-(Ethylamino)ethoxy)-2-methyl-N-(1-(naphthalen-1-yl)cyclopropyl)benzamide]	< 100 nM
Cc1ccc(NCCN(C)C)cc1C(=O)NC1(c2cccc3ccccc23)CC1 [Compound 412]	< 100 nM
Cc1cc2c(cc1C(=O)NC1(c3cccc4ccccc34)CC1)n(C)c(=O)n2C [Compound 237, 1,3,6-Trimethyl-N-(1-(naphthalen-1-yl)cyclopropyl)-2-oxo-2,3-dihydro-1H-benzo[d]imidazole-5-carboxamide]	1000 to 5000 nM
